From patent US9757317B2, “Cosmetic compositions and methods for inhibiting melanin synthesis” (The Procter & Gamble Company, priority 2014, dated 2017)
Structures can show the parent of a compound that is named as a salt.

System: B16-F1 mouse melanoma cells
Assay: Melanin Synthesis Assay
Type: cell-based
Description: A B16-F1 mouse melanoma cell line may be employed as an assay to measure melanin synthesis. The B16-F1 cells may be obtained from American Tissue Culture Collection, Virginia, USA. The cell culture medium that may be used in the assay may comprise 500 mL of Dulbecco's Modified Eagle's Medium (DMEM), 50 mL Fetal Bovine Serum (FBS), and 5 mL of penicillin-streptomycin liquid. B16-F1 cells that are cultured in this medium and grown to greater than 90% confluency synthesize melanin. While not intending to be bound by any theory, it is hypothesized that melanin synthesis is stimulated by the culture medium and/or stress induced by growth to a high confluency. The DMEM and FBS can be obtained from American Tissue Culture Collection and the penicillin-streptomycin liquid can be obtained from Invitrogen, Inc., California, USA. Equipment used in the assay include a CO2 incubator, such as a Form a Series Model 3110 by Therma Scientific, Massachusetts, USA; a hemocytometer, such as a Bright Line model by Hauser Scientific, Pennsylvania, USA; and a UV-Visible Spectrum Plate Reader, such as a SpectraMax250 from Molecular Devices, California, USA. The assay steps may include:
Day 0—Cell Growth: Warm the cell culture medium to 37° C. and place 29 mL into a T-150 flask. Add approximately 1×10^6 of B16-F1 passage 1 mouse cells to the T-150 flask and incubate for 3 days at 37° C., 5% CO2, 90% relative humidity, until ˜80% confluency;
Day 3—Initiate a 96 Well Plate: At day 3, trypsinize the cells from the T-150 flask and determine the concentration of cells using a hemocytometer. Initiate a 96 well plate with 2,500 cells per well in 100 microliters of cell culture medium. Incubate the plate at 37° C., 5% CO2, 90% relative humidity for about 2 days until at least 20% to 40% confluency;
Day 5—Decant the cell culture medium from the plate and replace with fresh culture medium (100 uL per well). Add 1 microliter of [test compound] diluted in a [water or DSMO] solvent. Multiple dilution ratios may be tested in order to generate a dose response curve, wherein preferably three wells are treated with each dilution ratio. Controls comprise wells having the cell culture medium, B16-F1 cells, and the solvent (control #1); wells comprising the cell culture medium and the solvent (control #2); and optionally wells comprising the cell culture medium, solvent and [test compound] when necessary to control for the [test compound] background color (control #3);
Day 7—Measure Melanin Production: Cells should have a confluency greater than ˜90%. […] Add 100 microliters of a 0.75% sodium hydroxide solution to each well. Read the 96 well plate using the UV-Vis Plate Reader at 410 nm to optically measure the amount of melanin produced between wells that are treated with [test compound] and control wells that are not treated with a test compound. Wells in which melanin is produced typically appear brownish in color. Wells in which little melanin is produced typically appear clear to light purple in color. Percentage of melanin synthesis inhibition is calculated by the following equation: […]
Where OD410 is the Optical Density at 410 nm as measured by the UV-Vis Spectrum Plate Reader.
When Control #3 is used, the formula for percentage melanin synthesis inhibition is: […]
Using generally the assay outlined above, melanin synthesis in treated B16-F1 cells was inhibited as compared to control cells as shown in Table 1.

[1] = test material (0.002 to 0.5%) combined with Bis/HD/Nia
[2] = test material (0.002 to 0.5%) combined with Bis/UP/Nia

SMILES	Average Melanin % Inhibition [1]	Average Melanin % Inhibition [2]	also measured
CCCCCCCCCCC(O)CCCC (stereo not shown) [5-Pentadecanol]	46%	–	–
CC(C)=CCC[C@](C)(O)[C@@H]1CC=C(C)CC1 [Sample 1, bisabolol]	–	–	Average Melanin % Inhibition (Table 1, B16-F1 cells, 0.1% Bis, 0.00056% HD, 0.00011% UP, 0.00056% Nia where included): 2.2%
CCCCC(CC)COC(=O)CCCCC(=O)OCC(CC)CCCC (stereo not shown) [Bis (2-ethylhexyl) Adipate, Bis (2-ethylhexyl) adipate]	–	42%	–
CCCCCCCCCCCCCCCC(=O)OCC [Ethyl Palmitate, Ethyl palmitate]	82%	84%	–
CCCCC(CC)COC(=O)/C=C\C(=O)OCC(CC)CCCC (stereo not shown) [Bis (2-ethylhexyl) Maleate, Bis (2-ethylhexyl) maleate]	32%	45%	–
CCCCCCCCCCCCCCCCCC(=O)OCC(O)CO (racemic) [1-Stearoyl rac-Glycerol, 1-Stearoyl-rac-glycerol]	–	–	Average Melanin % Inhibition (test material (0.002 to 0.5%) combined with Bis/HD/UP/Nia): 38%
CCCCCCCCCCCCCCCCCCOCC(O)CO (stereo not shown) [Sample 8, batyl alcohol]	–	–	Average Melanin % Inhibition (Table 2, 0.03% Bat, 0.003% Bis, 0.0005% HD, 0.0001% UP, 0.0005% Nia where included): 7%
CCCCCCCCCCCCCCCCCCO [Stearyl Alcohol, Stearyl alcohol]	60%	73%	–
CCCCC(CC)COC(=O)CCCCCCCCC(=O)OCC(CC)CCCC (stereo not shown) [Bis (2-ethylhexyl) Sebacate, Bis (2-ethylhexyl) sebacate]	79%	88%	–
